Assay results taken from patent publication US10308926B2, “Stablized EZH2 peptides” (DANA-FARBER CANCER INSTITUTE, INC., priority 2013, dated 2019).
pIC50: −log10 of the molar value. Each block holds one compound with its values, some of them ahead of it. Bridges are numbered along the chain shown (N, C = ends). Where no end group is shown, it is not given here. [ ]: non-standard residue; d: D form. S5 = C=CCCC[C@](C)(N)C(=O)O; Nle = CCCC[C@H](N)C(=O)O

Columns and labels:
MLL-AF9 = assay: Viability assay on EZH2-dependent cell line MLL-AF9; format: cell-based, mouse
Source text: (§1) To compare the functional and mechanism-based cellular activities of SAH-EZH2 and GSK126, a small molecule inhibitor of EZH2 enzymatic activity (McCabe et al. Nature, 492: 108-112, 2012), we conducted viability assays on the EZH2-dependent cell line MLL-AF9 and the EZH2-independent (non-leukemic) cell line 32D. […] We next compared the effects of SAH-EZH2 and GSK126 on lineage specific surface marker expression in MLL-AF9 cells. […] Given the distinct mechanisms of action of SAH-EZH2 and GSK126, we explored whether co-administration of the two compounds would enhance the anti-leukemic effects. […] Thus, SAH-EZH2 manifests a unique mechanism of action by targeting EED, dissociating the EZH2/EED complex, and thereby reduces EZH2 protein levels. As a result, the H3K27Me3 mark is reduced over time and PRC2 transcriptional effects are inhibited, leading to anti-proliferative and induced-differentiation effects on EZH2-dependent leukemia cells.

Ace1, Adam8 and Fcer1a = assay: Real time qPCR of macrophage/monocyte lineage-specific markers in MLL-AF9 cells; format: cell-based, mouse; details: MLL-AF9, 8 days
32D = assay: Viability assay on EZH2-independent cell line 32D; format: cell-based; details: EZH2-independent (non-leukemic)
Source text: as §1

CD133 = CD133 expression in MLL-AF9 cells; format: cell-based, mouse; details: MLL-AF9, 8 days of treatment
MLL-AF9 leukemia cells = assay: Apoptosis by Annexin V/7-AAD flow cytometry; format: cell-based, mouse; details: positive control, 2 μM, 48 h
Method: Cell Proliferation, Apoptosis, and Cell Cycle Analyses: To monitor the effect of SAH-EZH2 peptides on cell proliferation, MLL-AF9 cells were seeded in 48 well plates at densities of 2×10^5 cells per well in 150 μl of AF9 media and treated with SAH-EZH2 peptides (10 μM) twice daily. Cells were counted every other day using a hematocytometer. To evaluate apoptosis induction, the cells were stained with Annexin V5-PE and 7-AAD after 8 or 16 days of treatment with SAH-EZH2 peptides. Camptothecin (Biovision) was used as a positive control (2 μM, 48 h). Cells were analyzed using a BD FACScaliber and data was processed using Flowjo software. For cell cycle analysis, cells were stained with propidium iodide (BD Biosciences) after 4 or 8 days of treatment with SAH-EZH2 peptides. Cells were analyzed using a BD FACSCalibur and data processed using Modfit software.

HA-EED = target: T1, HA-EED (Homo sapiens, UniProt O75530); assay: Anti-FITC pull down of HA-EED by FITC-SAH-EZH2 peptides; format: binding; details: HA-EED 40 nM
T1 construct: made in house; host or cells: Sf21 insect cells
Method: (§2) [formula] y: Fluorescence polarization, X: Receptor concentration, L: Ligand concentration AF: Minimum value of y, AB: Maximum value of y For anti-FITC pull down-based binding assays, HA-EED was produced in Sf21 cells as described in Shen et al.^29,46. FITC-SAH-EZH2 peptides (final concentration, 50, 10, and 2 nM) were mixed with 2 μl, 0.5 μl and 0.2 μl of anti-FITC antibody (Abcam, 1 mg/ml) respectively, and incubated with 30 μl of protein G agarose (Roche) in 400 μl binding buffer (pH 8.0, 20 mM Tris-HCl, 150 mM NaCl, 0.3% NP40, 10% glycerol). After successive washes, HA-EED (final concentration of 40 nM each tube) was added and incubated for 3 h, followed by detection of HA-EED bound to FITC-SAH-EZH2 peptides by anti-HA (Santa Cruz Biotechnology) western analysis. Detection of FITC-SAH-EZH2 peptides was accomplished by fluorescence scan (GE Healthcare Life Sciences, Typhoon 9200).

EED [1] = target: T2, EED (Homo sapiens, UniProt O75530); assay: Fluorescence polarization binding of FITC-labeled SAH-EZH2 peptides to EED; details: FITC-peptide 25 nM; His-EED 25 nM-8 μM
T2 construct: His (C); made in house; host or cells: Escherichia coli BL21(DE3)
Method: SAH-EZH2/EED Binding Analyses: For fluorescence polarization binding analysis, C-terminal His-tagged EED (His-EED) was expressed in Escherichia coli BL21(DE3) using 0.3 mM IPTG for 6 h at room temperature. Bacterial pellet lysate was loaded onto a Ni-NTA column (Novagen) for purification of His-EED. Fluorescinated stapled peptides (final concentration, 25 nM) were incubated with His-EED (serial dilution range, 25 nM-8 μM) at room temperature until equilibrium was reached (˜15 min) Binding activity was measured by fluorescence polarization on a Perkin-Elmer LS50B luminescence 5 spectrophotometer. KD values were determined by following equation,
as §2

22Rv1 = assay: Viability of androgen independent prostate cancer cells 22Rv1, Cell Titer Glo; format: cell-based; details: 22Rv1, every other day; read-out: IC50 for growth
Method: (§3) To test the anti-proliferative effect of SAH-EZH2(42-68)AC, breast (MDA-MB231) and prostate (DU145) cancer cell lines were treated with SAH-EZH2(42-68)AC at the indicated doses for 8 days and measured for viability by Cell Titer Glo®SAH-EZH2(42-68)AC was added to the culture medium once every other day. […] We further tested the anti-proliferative effects of SAH-EZH2(42-68)AC on a Ewing Sarcoma cell line (TC71) and neuroblastoma cell line (Kelly). The cells were treated with SAH-EZH2(42-68)AC at the indicated doses for 6 days on an every other day schedule and then measured for viability using Cell Titer Glo®. […] To test the anti-proliferative effect on chronic myelogenous leukemia, SAH-EZH2(42-68)AC was added to K562 cells at 10 μM every other day and viability was measured at days 2, 4, 6, and 10 using Cell Titer Glo®. […] To assess the anti-proliferative effects of SAH-EZH2(42-68)AC on androgen-dependent and advanced androgen-independent prostate cancer, SAH-EZH2(42-68)AC was added to cell culture every other day at the indicated doses and viability measured using Cell Titer Glo®.

Kelly = assay: Viability of neuroblastoma cell line Kelly, Cell Titer Glo; format: cell-based; details: 6 days, every other day
Method: as §3

[2] = tested on: MDA-MB231 breast cancer cells; assay: Viability of MDA-MB231 breast cancer cells; format: cell-based; details: 8 days, once every other day
Source text: (§4) To compare the functional and mechanism-based cellular activities of SAH-EZH2 and GSK126, a small molecule inhibitor of EZH2 enzymatic activity (McCabe et al. Nature, 492: 108-112, 2012), we conducted viability assays on the EZH2-dependent cell line MLL-AF9 and the EZH2-independent (non-leukemic) cell line 32D. […] We next compared the effects of SAH-EZH2 and GSK126 on lineage specific surface marker expression in MLL-AF9 cells. […] Given the distinct mechanisms of action of SAH-EZH2 and GSK126, we explored whether co-administration of the two compounds would enhance the anti-leukemic effects. […]
(§5) To test the anti-proliferative effect of SAH-EZH2(42-68)AC, breast (MDA-MB231) and prostate (DU145) cancer cell lines were treated with SAH-EZH2(42-68)AC at the indicated doses for 8 days and measured for viability by Cell Titer Glo®SAH-EZH2(42-68)AC was added to the culture medium once every other day. […] The cells were treated with SAH-EZH2(42-68)AC at the indicated doses for 6 days on an every other day schedule and then measured for viability using Cell Titer Glo®. […] To test the anti-proliferative effect on chronic myelogenous leukemia, SAH-EZH2(42-68)AC was added to K562 cells at 10 μM every other day and viability was measured at days 2, 4, 6, and 10 using Cell Titer Glo®. […]

Abl = assay: Viability of androgen independent prostate cancer cells Abl, Cell Titer Glo; format: cell-based; details: every other day, read-out: IC50 for growth
Method: as §3

EED [3] = target: T2, EED; assay: Competitive fluorescence polarization: displacement of FITC-labeled EZH2(42-68) peptide from EED; format: binding; details: N-terminal acetylated peptides; EED 200 nM, FITC-peptide 20 nM, 30 min
Method: The EED binding affinities of SAH-EZH2 and SAH-EZH2(42-68)AC were assessed by their capacities to displace FITC-labeled EZH2(42-68) peptide from EED. Serially diluted acetyl-SAH-EZH2 and the doubly stapled acetyl-SAH-EZH2(42-68)AC (dose range from 2.5 nM to 10 μIM) were incubated with purified EED (200 nM) and FITC-labeled EZH2(42-68) peptide (20 nM) for 30 min, followed by measurement of fluorescence polarization. […] The non-binding EZH2(47-64) construct was used as a negative control.

[4] = tested on: DU145 prostate cancer cells; assay: Viability of DU145 prostate cancer cells; format: cell-based; details: 8 days, once every other day
Source text: as §4, §5

K562 cells = assay: Viability of K562 chronic myelogenous leukemia cells, Cell Titer Glo; format: cell-based; details: 10 μM every other day; days 2, 4, 6 and 10
Method: as §3

TC71 = assay: Viability of Ewing Sarcoma cell line TC71, Cell Titer Glo; format: cell-based; details: 6 days, every other day
Method: as §3

LNCaP cells = assay: Viability of androgen-dependent LNCaP cells, Cell Titer Glo; format: cell-based; details: every other day
Method: as §3

T2 sequence (O75530 whole entry, species assumed): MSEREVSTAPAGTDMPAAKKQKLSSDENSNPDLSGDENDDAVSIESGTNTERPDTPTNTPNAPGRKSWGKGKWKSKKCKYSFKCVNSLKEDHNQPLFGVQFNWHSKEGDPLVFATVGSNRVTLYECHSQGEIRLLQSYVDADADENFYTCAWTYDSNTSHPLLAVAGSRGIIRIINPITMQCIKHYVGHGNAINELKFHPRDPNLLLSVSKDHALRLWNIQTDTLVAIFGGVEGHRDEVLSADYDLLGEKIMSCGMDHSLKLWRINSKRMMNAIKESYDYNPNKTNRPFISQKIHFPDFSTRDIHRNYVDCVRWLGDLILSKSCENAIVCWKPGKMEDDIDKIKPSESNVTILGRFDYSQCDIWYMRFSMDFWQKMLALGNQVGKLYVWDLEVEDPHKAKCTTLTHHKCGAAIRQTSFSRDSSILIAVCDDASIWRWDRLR
T1 sequence (O75530 whole entry): as the sequence (O75530 whole entry, species assumed) above

Compound: CC[C@H](C)n1cc(C)c2c(C(=O)NCc3c(C)cc(C)[nH]c3=O)cc(-c3ccc(N4CCNCC4)nc3)cc21 [GSK126]
- Viability of MLL-AF9 cells (MLL-AF9): decreased the viability
- Expression of macrophage lineage-specific markers (Ace1, Adam8 and Fcer1a): increase expression of Fcerla
- Viability of 32D cells (32D): decreased the viability
- Expression of CD133 (CD133): decreased the expression

Compound: CC[C@@]1(O)C(=O)OCc2c1cc1n(c2=O)Cc2cc3ccccc3nc2-1 [camptothecin]
- Apoptotic effect (MLL-AF9 leukemia cells): robust apoptotic effect

Compound: SAH-EZH2B(40-68): stapled EZH2(40-68) peptide with the B-positioned staple; probably position 'C' (54-58) of FIG. 2, SEQ ID NO: 5 (S[Nle]FSSNRQKILERT[S5]ILN[S5]EWKQRRIQPV; staple 15-19)
- EED-binding activity by fluorescence polarization (EED [1]): most potent dose-responsive EED-binding activities

Compound: SBFSSNRXKILXRTEILNQEWKQRRIQPV (SEQ ID NO: 3) (S[Nle]FSSNR[S5]KIL[S5]RTEILNQEWKQRRIQPV; staple 8-12) [SAH-EZH2A(40-68)]
- EED-binding activity by fluorescence polarization (EED [1]): most potent dose-responsive EED-binding activities

Now from value to compound, other results behind:

- Engagement of HA-EED by anti-FITC pull down (HA-EED): no appreciable engagement
- EED-binding activity by fluorescence polarization (EED [1]): no appreciable engagement
Compound: FSSNRXKILXRTEILNQEWKQRR (SEQ ID NO: 19) (FSSNR[S5]KIL[S5]RTEILNQEWKQRR; staple 6-10) [SAH-EZH2A(42-64)]

- pIC50 (22Rv1): > 6.00
- pIC50 (Abl): > 6.00
- Displacement of FITC-labeled EZH2(42-68) peptide from EED (EED [3]): two times more efficiently than SAH-EZH2
Compound: FSSNRXKILXRTXILNXEWKQRRIQPV (SEQ ID NO:56) (FSSNR[S5]KIL[S5]RT[S5]ILN[S5]EWKQRRIQPV; staple 6-10, 13-17) [SAH-EZH2(42-68)AC]
- Anti-proliferative effect on Kelly (Kelly): noticeable anti-proliferative effects
- Anti-proliferative effect on MDA-MB231 [2]: enhanced dose-dependent anti-proliferative effects compared to SAH-EZH2 treatment
- Anti-proliferative effect on DU145 [4]: enhanced dose-dependent anti-proliferative effects compared to SAH-EZH2 treatment
- Proliferation of K562 cells (K562 cells): decreased proliferation of K562 cells in a dose-responsive manner
- Anti-proliferative effect on TC71 (TC71): noticeable anti-proliferative effects
- Anti-proliferative activity on LNCaP (LNCaP cells): anti-proliferative activity in each case

- Displacement of FITC-labeled EZH2(42-68) peptide from EED (EED [3]): non-binding
Compound: QKILERTEILNQEWKQRR (SEQ ID NO: 11) [EZH2(47-64), reference compound]

- Engagement of HA-EED by anti-FITC pull down (HA-EED): no appreciable engagement
- EED-binding activity by fluorescence polarization (EED [1]): no appreciable engagement
Compound: SAH-EZH2B(42-64): foreshortened stapled EZH2(42-64) peptide with the B-positioned staple; probably position 'C' of FIG. 2, SEQ ID NO: 20 (FSSNRQKILERT[S5]ILN[S5]EWKQRR; staple 13-17)
